IC50 data for six molecules are collected here from ChEMBL document CHEMBL5053558, “Novel Indole Compounds as TEAD Inhibitors for Treating Cancer” (ACS Med Chem Lett, 2021).

The test can be described thus: Inhibition of TEAD in human tumour cells assessed as YAP1/TAZ-TEAD modulation incubated for 48 hrs by Bright-Glo luciferase assay. It counts as cell-based. To be noted: Tumor Cell line.

As to `C=CC(=O)Nc1ccc2c(c1)c(C)cn2-c1ccc(C(F)(F)F)cc1`, the IC50 turned out to be 9 nM. On to `C=CC(=O)Nc1ccc2c(c1)c(COC)cn2-c1ccc(C(F)(F)F)cc1`, for which the IC50 worked out at 15 nM. As to `C=CC(=O)Nc1ccc2c(ccn2-c2ccc(C(F)(F)F)cc2)c1`, the IC50 stood at 8 nM. With `C=CC(=O)Nc1ccc2c(ccn2Cc2ccc(-c3cccc(C(F)(F)F)c3)cc2)c1`, the IC50 is 20 nM.

Regarding `C=CC(=O)Nc1cc2ccn(Cc3cccc(C(F)(F)F)c3)c2cc1F`, the IC50 came out at 18 nM. Consider `C=CC(=O)Nc1ccc2c(c1)cc(C)n2-c1ccc(C(F)(F)F)cc1`, for which the half-maximal inhibitory concentration (IC50) was determined as 12 nM.
